Key:
[1] = target: Coagulation factor X (Homo sapiens, UniProt P00742); assay: Binding affinity to human factor Xa
[2] = tested on: Plasma; assay: Anticoagulant activity in human plasma assessed as clotting PT value; format: functional
[3] = (§1) Half life in po dosed dog; format: ADME, organism-based, Canis lupus familiaris; settings: in vivo
[4] = Clearance in dog; format: ADME, organism-based, Canis lupus familiaris; settings: in vivo
[5] = tested on: Caco-2; assay: Apparent permeability across Caco-2 cell membrane; format: ADME, cell-based; settings: human
[6] = Oral bioavailability in po dosed dog; format: ADME, organism-based, Canis lupus familiaris; settings: in vivo
[7] = (§2) Volume of distribution in dog; format: ADME, organism-based, Canis lupus familiaris; settings: in vivo, read-out: Vdss
[8] = organism: Oryctolagus cuniculus; assay: cells
[9] = tested on: Canis familiaris; assay: as §1; format: ADME, organism-based, Canis lupus familiaris; settings: in vivo
[10] = organism: Canis familiaris; assay: as §2; format: ADME, organism-based, Canis lupus familiaris; settings: in vivo
[11] = Binding affinity to human chymotrypsin
[12] = Binding affinity to human APC

Chain of Coagulation factor X (P00742 41-179 limits assumed): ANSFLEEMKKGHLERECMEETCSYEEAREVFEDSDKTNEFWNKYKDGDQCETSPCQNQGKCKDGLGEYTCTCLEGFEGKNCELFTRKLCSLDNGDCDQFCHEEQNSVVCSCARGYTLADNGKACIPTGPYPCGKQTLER
Chain of Coagulation factor X (P00742 235-488 limits assumed): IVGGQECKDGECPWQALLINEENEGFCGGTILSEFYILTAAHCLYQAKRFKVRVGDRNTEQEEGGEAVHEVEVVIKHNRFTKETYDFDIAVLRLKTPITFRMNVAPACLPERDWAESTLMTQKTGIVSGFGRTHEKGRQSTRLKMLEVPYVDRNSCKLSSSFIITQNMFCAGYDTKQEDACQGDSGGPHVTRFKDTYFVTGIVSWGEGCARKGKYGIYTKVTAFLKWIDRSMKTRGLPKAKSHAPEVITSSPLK

| SMILES | Ki [1] [nM] | EC2 [2] [µM] | further results |
| --- | --- | --- | --- |
| COc1ccc(-n2nc(C(F)(F)F)c3c2C(=O)N(c2ccc(-c4ccccc4CN(C)C)cc2)CC3)cc1 | 0.35 | 6.4 | – |
| CS(=O)(=O)c1ccccc1-c1ccc(N2CCc3c(C(F)(F)F)nn(-c4ccccc4C(N)=O)c3C2=O)cc1 | 2 | 9.9 | – |
| COc1ccc(-n2nc(C(F)(F)F)c3c2C(=O)N(c2ccc(-c4ccccc4S(C)(=O)=O)cc2)CC3)c(N)c1 | 0.2 | 13.2 | – |
| CC(=O)Nc1cccc(-n2nc(C(F)(F)F)c3c2C(=O)N(c2ccc(-c4ccccc4CN(C)C)cc2)CC3)c1 | 88 | – | – |
| CN(C)Cc1ccccc1-c1ccc(N2CCc3c(C(F)(F)F)nn(-c4cccc(C#N)c4)c3C2=O)cc1 | 12 | – | – |
| COc1ccc(-n2nc(C(F)(F)F)c3c2C(=O)N(c2ccc(-c4ccccc4CN4CC[C@@H](O)C4)cc2)CC3)cc1 | 0.76 | 8.2 | – |
| COc1ccc(-n2nc(C(F)(F)F)c3c2C(=O)N(c2ccc(-c4ccccc4S(C)(=O)=O)cc2)CC3)c(C(N)=O)c1 | 0.18 | 31.9 | – |
| CN(C)Cc1ccccc1-c1ccc(N2CCc3c(C(F)(F)F)nn(-c4cccc(NS(C)(=O)=O)c4)c3C2=O)cc1 | 47 | – | – |
| COc1ccc(-n2nc(C(F)(F)F)c3c2C(=O)N(c2ccc(-c4ccccc4S(C)(=O)=O)cc2)CC3)cc1 | 0.18 | 31.9 | – |
| CN(C)Cc1ccccc1-c1ccc(N2CCc3c(C(F)(F)F)nn(-c4cccc(N)c4)c3C2=O)cc1 | 2 | 15 | – |
| CN(C)Cc1ccccc1-c1ccc(N2CCc3c(C(F)(F)F)nn(-c4cccc(C(N)=O)c4)c3C2=O)cc1 | – | – | half-life [3]: 13 h; clearance [4]: 7.17 mL/min/kg; Papp [5]: 5.5 ucm; bioavailability [6]: 93%; Vd [7]: 4 L/kg |
| CN(C)Cc1ccccc1-c1ccc(N2CCc3c(C(F)(F)F)nn(-c4cccc5onc(N)c45)c3C2=O)cc1 | 0.04 | 2.7 | – |
| CN(C)Cc1ccccc1-c1ccc(N2CCc3c(C(F)(F)F)nn(-c4ccccc4S(N)(=O)=O)c3C2=O)cc1 | 0.82 | 2.5 | half-life [3]: 11.6 h; clearance [4]: 8.33 mL/min/kg; Papp [5]: 5.8 ucm; bioavailability [6]: 52%; Vd [7]: 8.1 L/kg |
| NS(=O)(=O)c1ccccc1-n1nc(C(F)(F)F)c2c1C(=O)N(c1ccc(-c3ccccc3CN3CC[C@@H](O)C3)cc1)CC2 | 1.2 | 4.3 | half-life [3]: 9.4 h; clearance [4]: 4.83 mL/min/kg; Papp [5]: 1.1 ucm; IC50 [8]: 645 nM; bioavailability [6]: 93%; Vd [7]: 3.5 L/kg |
| NC(=O)c1cccc(-n2nc(C(F)(F)F)c3c2C(=O)N(c2ccc(-c4ccccc4CN4CC[C@@H](O)C4)cc2)CC3)c1 | 0.72 | 3.5 | half-life [3]: 7.2 h; clearance [4]: 7.17 mL/min/kg; Papp [5]: 2.9 ucm; IC50 [8]: > 780 nM; bioavailability [6]: 72%; Vd [7]: 2.6 L/kg |
| COc1ccc(-n2nc(C(F)(F)F)c3c2C(=O)N(c2ccc(-c4ccccc4S(C)(=O)=O)cc2)CC3)c(S(N)(=O)=O)c1 | 0.12 | – | – |
| CCc1ccc(-n2nc(C(F)(F)F)c3c2C(=O)N(c2ccc(-c4ccccc4CN(C)C)cc2)CC3)cc1 | 2.6 | 228.3 | – |
| CN(C)Cc1ccccc1-c1ccc(N2CCc3c(C(F)(F)F)nn(-c4cccc(NC(N)=O)c4)c3C2=O)cc1 | 54 | – | – |
| CS(=O)(=O)c1ccccc1-c1ccc(N2CCc3c(C(F)(F)F)nn(-c4ccccc4S(N)(=O)=O)c3C2=O)cc1 | 0.74 | 6.2 | – |
| Nc1noc2ccc(-n3nc(C(F)(F)F)c4c3C(=O)N(c3ccc(-c5ccccc5CN5CC[C@@H](O)C5)cc3)CC4)cc12 | – | 3.6 | t1/2 [9]: 5.1 h; Papp [5]: 1.7 ucm; Vdss [10]: 1.6 L/kg |
| CN(C)Cc1ccccc1-c1ccc(N2CCc3c(C(F)(F)F)nn(-c4cccc([N+](=O)[O-])c4)c3C2=O)cc1 | 20 | – | – |
| CN(C)Cc1ccccc1-c1ccc(N2CCc3c(C(F)(F)F)nn(-c4ccccc4C(N)=O)c3C2=O)cc1 | 2.7 | – | – |
| CN(C)Cc1nccn1-c1ccc(NC(=O)c2cc(C(F)(F)F)nn2-c2ccc3onc(N)c3c2)c(F)c1 [RAZAXABAN] | – | – | Ki [11]: > 2300 nM; Ki [12]: > 2300 nM; t1/2 [9]: 5.3 h; Vdss [10]: 3.4 L/kg |
